Measured values as given in patent publication US7321027B2, “Small technetium-99m and rhenium labeled agents and methods for imaging tumors” (President and Fellows of Harvard College, priority 2000, dated 2008).

What was measured:
B16/F0 cells = assay: Tumor-cell uptake in the presence of DTG; format: cell-based, murine; settings: DTG 90 μM, 30 min prior, 37° C.
Text: J. Labelled Compd. Radiopharm. 1994, 35, 242-244; Vilner, B. J.; John, C. S.; Bowen, W. D. Sigma-I and Sigma-2 Receptors Are Expressed in a Wide Variety of Human and Rodent Tumor Cell Lines. Cancer Res. 1995, 55, 408-413; and John, C. S.; Vilner, B. J.; Gulden, M. E.; Efange, S. M. N.; Langason, R. B.; Moody, T. W.; Bowen, W. D. Synthesis and Pharmacological Characterization of 4-[^125I]-N-(N-Benzylpiperidin-4-yl)-4-iodobenzamide: A High Affinity σ Receptor Ligand for Potential Imaging of Breast Cancer. […] Pre-incubation of the tumor cells with DTG (90 μM), 30 min prior to the uptake experiments with the ^99mTc-complexes, yields a lower tumor-cell uptake for complexes Tc-(Compound A) (29% less), Tc-(Compound C) (33% less), and Tc-(Compound D) (32% less) at 37° C. (FIG. 4). Additional dose-response experiments conducted with intact B16/F0 cells at 37° C. with Tc-(Compound C) and DTG as the inhibitor (FIG. 3) show a DTG concentration-dependent decrease in the uptake of the complex.
The effect of the inhibitor DTG on cell uptake of these complexes was studied by addition of the inhibitor at various concentrations to the cell suspension 30 min prior to addition of the ^99mTc-complexes. Fresh DTG stock solutions were made by dissolving DTG (3.0 mg, 12.5 μmol) in 0.38 mL PBS and 0.12 mL hydrochloric acid (0.1 N) and subjecting the mixture to ultrasound until a clear solution was obtained, followed by the addition of 0.50 mL FBS to produce a neutral solution at pH 7.4. The stock solutions were diluted by an appropriate amount of S-MEM, and aliquots between 5 μL and 25 μL were added to the cell suspension such that the final concentration of DTG was between 0.02 μM and 120 μM in a total cell suspension volume of 350 μL.

[1] = system: MCF-7 human breast cancer cell line; assay: In-vitro tumor-cell uptake, breast cancer cells; format: cell-based; settings: 37° C., MCF-7 cell line
Protocol: In-Vitro Tumor-Uptake Studies. Tumor-cell uptake studies in B16/F0 murine melanoma cells were performed with complexes Tc-(Compound A-D and H-M) at 37° C. and 4° C. Additionally, tumor-cell uptake of complex Tc-(Compound A) was investigated in another rapidly dividing MCF-7 human breast cancer cell line.
In-Vitro Cell Studies. […] After being washed with 12 mL Dulbecco's Phosphate-Buffered Saline (PBS) (Gibco), pH 7.2 (Ca^2+- and Mg^2+-free; g/L KCl, 0.20; KH2PO4, 0.20; NaCl, 8.00; Na2HPO4, 1.15), the cells were counted and resuspended in 8 mL S-MEM (Gibco) (Ca^2+ free, with reduced Mg^2+ content) and stored at 4° C. until use.
For in-vitro tumor-cell accumulation studies, 5×10^6 cells in polypropylene test tubes were incubated at 37° C. or 4° C., with intermittent agitation with 1-2 μCi (5 μL) ^99mTc-complex Tc-(Compound A-D) in a total volume of 350 μL S-MEM. […] Both fractions were counted for radioactivity in a γ-counter (WALLAC, 1480 WIZARD 3″™). The amount of supernatant in the cell pellet was determined to be <1% in separate experiments. The percentage cell uptake of the ^99mTc-complex was calculated as: % uptake=[cpm(pellet)]/[cpm(pellet)+cpm(supernatant)]×100

CCN(CC)CCN1CC[S][99Tc]2(=[O])[S]CC[N]2C(=O)C1 (centres unmarked) [Tc-(Compound A)]
lower tumor-cell uptake after pre-incubation with DTG (B16/F0 cells): 29% | maximum cell uptake [1]: 6%
